Test results: PubChem BioAssay AID1982 (Sanford-Burnham Center for Chemical Genomics, 2009)
Calls of active or inactive are those of the source. The rule behind the calls is not given here.

How the values were obtained:
Assay in all cases: kinase panel binding selectivity, selectivity assay, biochemical, KINOMEscan (AID 1982)
[1] = biological target: Tyrosine-protein kinase Fyn (Homo sapiens) (UniProt P06241); conditions: KINOMEscan 353-kinase binding panel, qPCR, at 10 µM, stronger effect = lower value
[2] = biological target: Tyrosine-protein kinase JAK2 (Homo sapiens) (UniProt O60674); conditions: KINOMEscan 353-kinase binding panel, qPCR; JAK2(Kin.Dom.2); at 10 µM; stronger effect = lower value
EPHA5 = conditions: KINOMEscan 353-kinase binding panel, qPCR, at 10 µM, stronger effect = lower value
DMPK = conditions: KINOMEscan 353-kinase binding panel, qPCR, at 10 µM, stronger effect = lower value
MERTK = conditions: KINOMEscan 353-kinase binding panel, qPCR, at 10 µM, stronger effect = lower value
PKAC-beta = conditions: KINOMEscan 353-kinase binding panel, qPCR, at 10 µM, stronger effect = lower value
RIPK1 = conditions: KINOMEscan 353-kinase binding panel, qPCR, at 10 µM, stronger effect = lower value
[3] = biological target: Glycogen synthase kinase-3 beta (Homo sapiens) (UniProt P49841); conditions: KINOMEscan 353-kinase binding panel, qPCR; GSK3B; at 10 µM; stronger effect = lower value
[4] = biological target: Insulin receptor (Homo sapiens) (UniProt P06213); conditions: KINOMEscan 353-kinase binding panel, qPCR; INSR; at 10 µM; stronger effect = lower value
CSK = conditions: KINOMEscan 353-kinase binding panel, qPCR, at 10 µM, stronger effect = lower value
[5] = biological target: Calcium/calmodulin-dependent protein kinase type II subunit beta (Homo sapiens) (UniProt Q13554); conditions: KINOMEscan 353-kinase binding panel, qPCR; CAMK2B; at 10 µM; stronger effect = lower value
AURKC = conditions: KINOMEscan 353-kinase binding panel, qPCR, at 10 µM, stronger effect = lower value
LKB1 = conditions: KINOMEscan 353-kinase binding panel, qPCR, at 10 µM, stronger effect = lower value
PIK3CA(E545K) = conditions: KINOMEscan 353-kinase binding panel, qPCR, at 10 µM, stronger effect = lower value
[6] = biological target: Serine/threonine-protein kinase 17A (Homo sapiens) (UniProt Q9UEE5); conditions: KINOMEscan 353-kinase binding panel, qPCR; DRAK1; at 10 µM; stronger effect = lower value
[7] = biological target: Calcium/calmodulin-dependent protein kinase type II subunit alpha (Homo sapiens) (UniProt Q9UQM7); conditions: KINOMEscan 353-kinase binding panel, qPCR; CAMK2A; at 10 µM; stronger effect = lower value
MST3 = conditions: KINOMEscan 353-kinase binding panel, qPCR, at 10 µM, stronger effect = lower value
[8] = biological target: Misshapen-like kinase 1 (Homo sapiens) (UniProt Q8N4C8); conditions: KINOMEscan 353-kinase binding panel, qPCR; MINK; at 10 µM; stronger effect = lower value
[9] = biological target: Calcium/calmodulin-dependent protein kinase type II subunit gamma (Homo sapiens) (UniProt Q13555); conditions: KINOMEscan 353-kinase binding panel, qPCR; CAMK2G; at 10 µM; stronger effect = lower value
JAK1(Kin.Dom.1) = conditions: KINOMEscan 353-kinase binding panel, qPCR, at 10 µM, stronger effect = lower value
ULK3 = conditions: KINOMEscan 353-kinase binding panel, qPCR, at 10 µM, stronger effect = lower value
[10] = biological target: Ribosomal protein S6 kinase alpha-3 (Homo sapiens) (UniProt P51812); conditions: KINOMEscan 353-kinase binding panel, qPCR; RPS6KA3(Kin.Dom.1); at 10 µM; stronger effect = lower value
[11] = biological target: Mitogen-activated protein kinase 10 (Homo sapiens) (UniProt P53779); conditions: KINOMEscan 353-kinase binding panel, qPCR; JNK3; at 10 µM; stronger effect = lower value
[12] = biological target: Dual specificity protein kinase CLK3 (Homo sapiens) (UniProt P49761); conditions: KINOMEscan 353-kinase binding panel, qPCR, at 10 µM, stronger effect = lower value
ARK5 = conditions: KINOMEscan 353-kinase binding panel, qPCR, at 10 µM, stronger effect = lower value
[13] = biological target: Calcium/calmodulin-dependent protein kinase kinase 2 (Homo sapiens) (UniProt Q96RR4); conditions: KINOMEscan 353-kinase binding panel, qPCR; CAMKK2; at 10 µM; stronger effect = lower value
[14] = biological target: MAP/microtubule affinity-regulating kinase 4 (Homo sapiens) (UniProt Q96L34); conditions: KINOMEscan 353-kinase binding panel, qPCR; MARK4; at 10 µM; stronger effect = lower value
ERK4 = conditions: KINOMEscan 353-kinase binding panel, qPCR, at 10 µM, stronger effect = lower value
[15] = biological target: Proto-oncogene tyrosine-protein kinase ROS (Homo sapiens) (UniProt P08922); conditions: KINOMEscan 353-kinase binding panel, qPCR; ROS1; at 10 µM; stronger effect = lower value
MUSK = conditions: KINOMEscan 353-kinase binding panel, qPCR, at 10 µM, stronger effect = lower value
[16] = biological target: Mitogen-activated protein kinase 3 (Homo sapiens) (UniProt P27361); conditions: KINOMEscan 353-kinase binding panel, qPCR; ERK1; at 10 µM; stronger effect = lower value
NEK5 = conditions: KINOMEscan 353-kinase binding panel, qPCR, at 10 µM, stronger effect = lower value
[17] = biological target: Serine/threonine-protein kinase 33 (Homo sapiens) (UniProt Q9BYT3); conditions: KINOMEscan 353-kinase binding panel, qPCR; STK33; at 10 µM; stronger effect = lower value

Measured: percent of control binding

Sequence of Tyrosine-protein kinase Fyn (Homo sapiens) (P06241 whole entry, looked up): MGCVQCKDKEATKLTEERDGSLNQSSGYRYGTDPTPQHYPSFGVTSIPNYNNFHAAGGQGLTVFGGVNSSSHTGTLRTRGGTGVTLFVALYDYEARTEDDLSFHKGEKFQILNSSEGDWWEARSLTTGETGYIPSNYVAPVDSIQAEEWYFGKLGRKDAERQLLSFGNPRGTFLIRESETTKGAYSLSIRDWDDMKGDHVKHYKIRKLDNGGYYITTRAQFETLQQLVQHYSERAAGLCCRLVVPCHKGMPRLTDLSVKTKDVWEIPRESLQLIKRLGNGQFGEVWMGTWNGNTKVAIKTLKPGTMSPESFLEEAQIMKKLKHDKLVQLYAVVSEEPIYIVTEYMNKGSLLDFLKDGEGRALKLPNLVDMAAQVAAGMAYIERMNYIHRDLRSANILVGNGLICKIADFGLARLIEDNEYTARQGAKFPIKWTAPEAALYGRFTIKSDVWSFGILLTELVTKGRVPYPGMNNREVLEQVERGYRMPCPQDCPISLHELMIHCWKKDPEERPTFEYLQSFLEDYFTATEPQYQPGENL
Sequence of Calcium/calmodulin-dependent protein kinase kinase 2 (Homo sapiens) (Q96RR4 whole entry, looked up): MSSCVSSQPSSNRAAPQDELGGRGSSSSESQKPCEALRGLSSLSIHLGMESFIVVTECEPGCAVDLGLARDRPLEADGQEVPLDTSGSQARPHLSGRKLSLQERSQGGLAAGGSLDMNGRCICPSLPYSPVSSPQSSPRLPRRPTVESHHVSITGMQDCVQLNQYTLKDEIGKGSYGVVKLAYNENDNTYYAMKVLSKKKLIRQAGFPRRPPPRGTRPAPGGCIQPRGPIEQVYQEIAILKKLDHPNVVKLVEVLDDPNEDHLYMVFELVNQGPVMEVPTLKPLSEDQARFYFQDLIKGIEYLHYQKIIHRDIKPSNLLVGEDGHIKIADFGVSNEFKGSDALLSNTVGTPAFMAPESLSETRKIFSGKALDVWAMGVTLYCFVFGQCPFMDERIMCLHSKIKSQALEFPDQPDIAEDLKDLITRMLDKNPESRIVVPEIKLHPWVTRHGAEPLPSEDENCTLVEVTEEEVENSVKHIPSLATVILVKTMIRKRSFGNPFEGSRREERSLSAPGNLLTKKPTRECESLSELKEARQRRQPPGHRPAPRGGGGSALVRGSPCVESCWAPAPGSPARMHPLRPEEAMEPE
Sequence of Ribosomal protein S6 kinase alpha-3 (Homo sapiens) (P51812 whole entry, looked up): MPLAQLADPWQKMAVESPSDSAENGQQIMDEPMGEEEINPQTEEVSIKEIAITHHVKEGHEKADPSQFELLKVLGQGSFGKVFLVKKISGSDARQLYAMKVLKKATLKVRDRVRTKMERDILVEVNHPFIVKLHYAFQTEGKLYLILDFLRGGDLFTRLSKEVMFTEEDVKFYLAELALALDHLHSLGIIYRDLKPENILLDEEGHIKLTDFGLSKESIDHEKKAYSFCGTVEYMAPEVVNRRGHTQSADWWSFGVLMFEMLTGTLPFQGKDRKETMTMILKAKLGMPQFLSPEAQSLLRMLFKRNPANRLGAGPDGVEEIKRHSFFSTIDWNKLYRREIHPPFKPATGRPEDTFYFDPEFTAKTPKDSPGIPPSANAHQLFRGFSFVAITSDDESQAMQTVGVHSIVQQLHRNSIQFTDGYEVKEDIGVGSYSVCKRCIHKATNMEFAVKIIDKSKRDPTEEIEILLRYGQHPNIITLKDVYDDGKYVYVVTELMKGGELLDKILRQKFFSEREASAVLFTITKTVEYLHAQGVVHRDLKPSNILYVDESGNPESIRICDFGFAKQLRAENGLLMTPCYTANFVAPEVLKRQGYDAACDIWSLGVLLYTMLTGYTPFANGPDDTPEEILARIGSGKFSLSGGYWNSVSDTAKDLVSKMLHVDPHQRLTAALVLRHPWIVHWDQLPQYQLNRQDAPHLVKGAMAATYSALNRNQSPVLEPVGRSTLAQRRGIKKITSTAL
Sequence of Mitogen-activated protein kinase 10 (Homo sapiens) (P53779 whole entry, looked up): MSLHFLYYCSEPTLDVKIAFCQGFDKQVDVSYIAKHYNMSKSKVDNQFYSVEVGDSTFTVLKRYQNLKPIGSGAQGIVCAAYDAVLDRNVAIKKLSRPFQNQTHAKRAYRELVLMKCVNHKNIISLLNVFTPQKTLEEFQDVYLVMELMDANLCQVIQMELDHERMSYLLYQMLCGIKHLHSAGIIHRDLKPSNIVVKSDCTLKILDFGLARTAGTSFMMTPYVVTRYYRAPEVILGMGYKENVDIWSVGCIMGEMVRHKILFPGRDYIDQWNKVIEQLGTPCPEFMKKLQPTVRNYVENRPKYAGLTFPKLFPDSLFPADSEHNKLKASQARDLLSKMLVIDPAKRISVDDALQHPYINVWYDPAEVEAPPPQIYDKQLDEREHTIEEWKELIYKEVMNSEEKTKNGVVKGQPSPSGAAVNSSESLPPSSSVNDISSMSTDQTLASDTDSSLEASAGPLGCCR
Sequence of Calcium/calmodulin-dependent protein kinase type II subunit gamma (Homo sapiens) (Q13555 whole entry, looked up): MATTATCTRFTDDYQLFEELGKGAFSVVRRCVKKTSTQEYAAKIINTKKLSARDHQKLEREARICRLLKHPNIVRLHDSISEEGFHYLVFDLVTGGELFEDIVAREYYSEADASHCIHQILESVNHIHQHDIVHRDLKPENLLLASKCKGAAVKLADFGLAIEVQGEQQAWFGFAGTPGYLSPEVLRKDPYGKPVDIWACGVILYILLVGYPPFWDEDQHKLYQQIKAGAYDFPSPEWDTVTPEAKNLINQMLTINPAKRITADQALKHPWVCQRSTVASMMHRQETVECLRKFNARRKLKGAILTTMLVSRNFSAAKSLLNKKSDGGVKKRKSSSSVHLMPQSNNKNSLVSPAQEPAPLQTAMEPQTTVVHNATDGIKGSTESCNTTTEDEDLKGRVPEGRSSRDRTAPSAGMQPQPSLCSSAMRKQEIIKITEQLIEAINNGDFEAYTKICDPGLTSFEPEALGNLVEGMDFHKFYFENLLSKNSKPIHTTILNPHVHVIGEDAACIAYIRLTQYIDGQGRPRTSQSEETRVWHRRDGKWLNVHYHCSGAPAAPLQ
Sequence of Dual specificity protein kinase CLK3 (Homo sapiens) (P49761 whole entry, looked up): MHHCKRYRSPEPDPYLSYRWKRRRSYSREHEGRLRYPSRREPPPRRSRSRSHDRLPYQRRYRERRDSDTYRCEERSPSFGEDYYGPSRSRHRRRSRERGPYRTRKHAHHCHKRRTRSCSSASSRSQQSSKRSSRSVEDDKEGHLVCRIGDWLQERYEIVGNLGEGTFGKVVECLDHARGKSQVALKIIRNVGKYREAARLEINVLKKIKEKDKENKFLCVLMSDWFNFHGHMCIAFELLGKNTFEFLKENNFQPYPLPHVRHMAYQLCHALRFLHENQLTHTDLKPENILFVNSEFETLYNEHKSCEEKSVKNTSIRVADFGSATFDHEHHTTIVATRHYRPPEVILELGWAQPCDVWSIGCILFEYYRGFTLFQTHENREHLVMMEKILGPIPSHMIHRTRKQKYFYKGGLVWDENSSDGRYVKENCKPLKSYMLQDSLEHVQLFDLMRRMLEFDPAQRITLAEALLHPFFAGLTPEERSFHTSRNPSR
Sequence of Calcium/calmodulin-dependent protein kinase type II subunit alpha (Homo sapiens) (Q9UQM7 whole entry, looked up): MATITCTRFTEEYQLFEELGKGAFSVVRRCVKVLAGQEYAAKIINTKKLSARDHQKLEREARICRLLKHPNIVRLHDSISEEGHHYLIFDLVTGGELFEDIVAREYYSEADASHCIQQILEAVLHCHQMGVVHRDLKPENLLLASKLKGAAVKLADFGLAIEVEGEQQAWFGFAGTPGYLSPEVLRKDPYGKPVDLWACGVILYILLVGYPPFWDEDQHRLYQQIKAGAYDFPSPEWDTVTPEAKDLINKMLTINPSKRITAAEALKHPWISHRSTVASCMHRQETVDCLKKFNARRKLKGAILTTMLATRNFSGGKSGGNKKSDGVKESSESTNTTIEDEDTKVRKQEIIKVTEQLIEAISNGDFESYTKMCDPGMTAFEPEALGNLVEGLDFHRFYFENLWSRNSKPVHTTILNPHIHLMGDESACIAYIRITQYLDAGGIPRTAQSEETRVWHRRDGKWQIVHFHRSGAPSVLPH
Sequence of Calcium/calmodulin-dependent protein kinase type II subunit beta (Homo sapiens) (Q13554 whole entry, looked up): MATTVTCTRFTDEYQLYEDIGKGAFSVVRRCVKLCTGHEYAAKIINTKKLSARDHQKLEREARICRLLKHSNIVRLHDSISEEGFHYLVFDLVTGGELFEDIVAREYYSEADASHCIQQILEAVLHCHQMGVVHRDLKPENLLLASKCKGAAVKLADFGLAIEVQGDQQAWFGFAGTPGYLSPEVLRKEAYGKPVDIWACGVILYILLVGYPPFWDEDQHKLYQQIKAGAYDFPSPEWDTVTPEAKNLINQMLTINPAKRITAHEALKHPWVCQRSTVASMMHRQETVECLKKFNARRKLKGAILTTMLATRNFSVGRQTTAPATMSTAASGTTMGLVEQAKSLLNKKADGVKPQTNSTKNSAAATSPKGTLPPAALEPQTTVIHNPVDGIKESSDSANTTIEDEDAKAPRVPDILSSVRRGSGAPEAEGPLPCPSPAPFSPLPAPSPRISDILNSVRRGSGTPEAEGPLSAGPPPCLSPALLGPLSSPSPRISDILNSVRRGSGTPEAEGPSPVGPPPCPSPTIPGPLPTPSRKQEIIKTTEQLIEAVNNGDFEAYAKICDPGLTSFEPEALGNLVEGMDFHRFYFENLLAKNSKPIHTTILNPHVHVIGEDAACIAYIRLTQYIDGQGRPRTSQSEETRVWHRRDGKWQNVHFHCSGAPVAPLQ
Sequence of Mitogen-activated protein kinase 3 (Homo sapiens) (P27361 whole entry, looked up): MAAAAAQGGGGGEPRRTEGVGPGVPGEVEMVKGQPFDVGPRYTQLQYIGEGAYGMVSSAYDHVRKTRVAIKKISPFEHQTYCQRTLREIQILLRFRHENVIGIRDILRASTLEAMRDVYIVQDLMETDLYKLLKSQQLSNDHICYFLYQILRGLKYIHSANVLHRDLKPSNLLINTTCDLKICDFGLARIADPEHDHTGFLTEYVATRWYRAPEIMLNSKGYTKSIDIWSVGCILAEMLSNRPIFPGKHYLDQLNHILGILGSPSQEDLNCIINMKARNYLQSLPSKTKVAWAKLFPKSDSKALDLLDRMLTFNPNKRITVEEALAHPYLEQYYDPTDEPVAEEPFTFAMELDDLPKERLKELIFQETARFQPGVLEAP

Cc1cc2nc(NCCCO)n(CC(=O)c3cc(C(C)(C)C)c(O)c(C(C)(C)C)c3)c2cc1C
inactive: [1] 82% | [2] 47% | EPHA5 87% | DMPK 93% | MERTK 100% | PKAC-beta 95% | RIPK1 100% | [3] 100% | [4] 94% | CSK 100% | [5] 100% | AURKC 100% | LKB1 100% | PIK3CA(E545K) 100% | [6] 89% | [7] 85% | MST3 100% | [8] 100% | [9] 100% | JAK1(Kin.Dom.1) 100% | ULK3 100% | [10] 92% | [11] 86% | [12] 100% | ARK5 100% | [13] 100% | [14] 98% | ERK4 100% | [15] 100% | MUSK 100% | [16] 94% | NEK5 91% | [17] 98%
